These are literature values, as cited in paper PMC3199145 (Future medicinal chemistry, 2011).

Series [1] relates to Trypanosoma brucei cathepsin B-like protease (TbCatB). Particulars: read-out: IC50 TbCatB.
Series [2] deals with Trypanosoma cruzi. Particulars: drug concentration that completely clears parasite from T. cruzi infected macrophage cells; P Doyle & J Engel. Unpublished Data.
For series [3], the system named is Trypanosoma cruzi.

Regarding `CN1CCN(C(=O)N[C@@H](Cc2ccccc2)C(=O)N[C@H](/C=C/S(=O)(=O)c2ccccc2)CCc2ccccc2)CC1` [Compound 1, K11777], the half-maximal inhibitory concentration (IC50) in series [1] is 4 µM. Besides, the “MTC Trypanosoma cruzi (minimal trypanocidal concentration)” value in series [2] was 8 µM. Further, in series [3], the “Efficacy in vivo against T. cruzi parasites” value is recorded as “effective”.

`C[C@@H](c1nc(-c2ccc(C#N)cc2)cs1)[C@](O)(Cn1cncn1)c1ccc(F)cc1F` [Ravuconazole]: the “Efficacy in animal models” value in series [3] (compared with posoconazole) was “more limited than posoconazole”. Consider `CC[C@@H]([C@H](C)O)n1ncn(-c2ccc(N3CCN(c4ccc(OC[C@@H]5CO[C@@](Cn6cncn6)(c6ccc(F)cc6F)C5)cc4)CC3)cc2)c1=O` [posaconazole], for which the “Cure of mice with acute and chronic Chagas disease” value in series [3] (mice) was “able to cure mice”.
